Like-named read-outs stand apart in the source and are kept apart here.
Columns and labels:
AIDS virus (HIV) = conditions: cited from earlier work
GMK cells [1] = tested on: GMK cells
HSV-2 (UW-268 strain) = assay: microbe, parasite or virus in culture; type: cell-based, Herpes simplex virus type 2; conditions: Human alphaherpesvirus 2, Vero, read-out: Antiviral Activity (ΔTCID50)
[2] = tested on: vaccinia viruses (D1E strain); assay: microbe, parasite or virus in culture; type: cell-based; conditions: Orthopoxvirus vaccinia, Vero, read-out: Antiviral Activity (ΔTCID50)
HSV-1 (Miyama strain) [3] = assay: In vitro antiviral action on cells infected with HSV-1 (Miyama strain), CPE inhibition, TCID50; type: cell-based, Herpes simplex virus type 1; conditions: read-out: Antiviral Activity (ΔTCID50); for log reduction at 5 µg/mL: 5 μg/ml; for log reduction at 25 µg/mL: 25 μg/ml
HSV-1 (KOS strain) = assay: microbe, parasite or virus in culture; type: cell-based, Herpes simplex virus type 1; conditions: Human alphaherpesvirus 1, Vero, read-out: Antiviral Activity (ΔTCID50)
[4] = Acute toxicity testing, oral, mice (LD50, Litchfield-Willcoxon); conditions: mouse, in vivo, ICR male mice, 7 days observation
Source text: The compounds to be tested in the form of a 2% aqueous solution of Tween 80 were orally administrated to ICR male mice (weights: 24-30 g), five for each group.

[5] = tested on: influenza viruses (A/PR/8 strain); assay: microbe, parasite or virus in culture; type: cell-based, influenza virus A/PR/8; conditions: unidentified influenza virus, PR/8, MDCK, read-out: Antiviral Activity (ΔTCID50)
GMK cells [6] = assay: Cytotoxicity (HSV UV-238 strain test), microscopic
HSV (UV-238 Strain) = assay: Action on HSV (UV-238 strain), CPE inhibition, TCID50; type: cell-based; conditions: read-out: Antiviral Activity (ΔTCID50); for log reduction at 1 µg/mL: 1 μg/ml; for log reduction at 5 µg/mL: 5 μg/ml; for log reduction at 25 µg/mL: 25 μg/ml
[7] = tested on: influenza viruses (A/PR/8 strain); assay: microbe, parasite or virus in culture; type: cell-based, influenza virus A/PR/8; conditions: unidentified influenza virus, read-out: Antiviral Activity (ΔTCID50)
herpes simplex virus = assay: Antiviral activity, general statement
[8] = Safety / cytotoxicity, general statement
influenza B virus = conditions: cited from earlier work
influenza A virus = conditions: cited from earlier work
HSV-1 (Miyama strain) [9] = assay: In vivo antiviral action: prolongation of life of mice infected with HSV-1; parameters: species or system BALB/c male mice; conditions: abdominal route, once a day, control 6.1 ± 0.6
Source text: BALB/c male mice of three weeks old, 10 for each group, were abdominally seeded with an infectious amount, 10LD50, of HSV-1(Miyama strain). One hour later and over six days after the next day, once a day, Compound (5) referred to in Table 1 was continuously administrated to each animal via an abdominal route.

[10] = Human alphaherpesvirus 1, GMK cells
[11] = Human alphaherpesvirus 1, 1 μg/ml, GMK cells

| Compound | magnitude of cytotoxicity (GMK cells [1]; 1 μg/ml) | magnitude of cytotoxicity (GMK cells [1]; 5 μg/ml) | log reduction at 5 µg/mL (HSV-1 (Miyama strain) [3]; [10]) | log reduction at 25 µg/mL (HSV-1 (Miyama strain) [3]; [10]) | log reduction at 1 µg/mL (HSV-1 (Miyama strain) [3]; [11]) | log reduction at 1 µg/mL (HSV (UV-238 Strain)) | log reduction at 5 µg/mL (HSV (UV-238 Strain)) | log reduction at 25 µg/mL (HSV (UV-238 Strain)) | also measured |
| --- | --- | --- | --- | --- | --- | --- | --- | --- | --- |
| Cc1cn([C@H]2C[C@H](N=[N+]=[N-])[C@@H](CO)O2)c(=O)[nH]c1=O [AZT] |  |  |  |  |  |  |  |  | effect on AIDS (AIDS virus (HIV)): delay the development of AIDS, but cannot accelerate healing |
| COc1ccccc1N1CCN(C(=O)[C@@]2(C)CC[C@]3(C)CC[C@]4(C)C(=CC[C@@H]5[C@@]6(C)CC[C@H](O[C@@H]7O[C@H](CO)[C@@H](O)[C@H](O)[C@H]7O)C(C)(C)[C@@H]6CC[C@]54C)[C@@H]3C2)CC1 [Comp. Ex. 25, 1-(3β-(β-D-glucopyranosyloxy)-18β-olean-12-en-30-oyl)-4-(2-methoxyphenyl)piperazine] | - | - | > 3 | > 3.56 |  |  |  |  | magnitude of cytotoxicity (GMK cells [1]; 25 μg/ml): ±; log reduction at 1 µg/mL (HSV-2 (UW-268 strain)): 1.85; log reduction at 5 µg/mL (HSV-2 (UW-268 strain)): 2.92; log reduction at 25 µg/mL (HSV-2 (UW-268 strain)): > 3.3; log reduction at 1 µg/mL [2]: 1.7; log reduction at 5 µg/mL [2]: 2.67; log reduction at 25 µg/mL [2]: 2.53; log reduction at 1 µg/mL (HSV-1 (Miyama strain) [3]; Human alphaherpesvirus 1, GMK): 1.86; log reduction at 1 µg/mL (HSV-1 (KOS strain)): 2.04; log reduction at 5 µg/mL (HSV-1 (KOS strain)): > 3.19; log reduction at 25 µg/mL (HSV-1 (KOS strain)): > 3.31; LD50 at 168 h [4]: > 1000 mg/kg; log reduction at 1 µg/mL [5]: 1.31; log reduction at 5 µg/mL [5]: 1.86; log reduction at 25 µg/mL [5]: 2.22 |
| COc1ccccc1N1CCN(C(=O)[C@@]2(C)CC[C@]3(C)CC[C@]4(C)C(=CC[C@@H]5[C@@]6(C)CC[C@H](O)C(C)(C)[C@@H]6CC[C@]54C)[C@@H]3C2)CC1 [Table 1, Comp. (9), 1-(3β-hydroxy-18β-olean-12-en-30-oyl)-4-(2-methoxyphenyl) piperazine] | - |  | 1.2 |  | 1.3 | 0.7 | 1.3 | 2.5 | magnitude of cytotoxicity (GMK cells [6]; 1 μg/ml): -; log reduction at 1 µg/mL ([7]; PR/8, MDCK): 0.5; log reduction at 5 µg/mL ([7]; PR/8, MDCK): 1; log reduction at 20 µg/mL ([7]; PR/8, MDCK): 1.3 |
| CC1(C)[C@@H](OC(=O)CCC(=O)O)CC[C@]2(C)[C@H]3C(=O)C=C4[C@@H]5C[C@@](C)(C(=O)O)CC[C@]5(C)CC[C@@]4(C)[C@]3(C)CC[C@@H]12 [Carbenoxolone, reference compound] |  |  | 0.3 | 2.4 | 0.2 | 0.2 | 0.2 | 2.2 |  |
| COc1ccccc1N1CCN(C(=O)[C@@]2(C)CC[C@]3(C)CC[C@]4(C)C(=CC[C@@H]5[C@@]6(C)CC[C@H](OC(=O)CCC(=O)O)C(C)(C)[C@@H]6CC[C@]54C)[C@@H]3C2)CC1 [Table 1, Comp. (13), 1-[3β-(3-carboxypropanoyloxy)-18β-olean-12-en-30-oyl]-4-(2-methoxyphenyl)piperazine] | - | - | 2.6 | 2.5 | 0.8 | 0.9 | 1.4 | 2.5 | antiviral activity (herpes simplex virus): a particularly high antiviral activity; safety / cytotoxic action [8]: of greatly safety; magnitude of cytotoxicity (GMK cells [6]; 1 μg/ml): -; magnitude of cytotoxicity (GMK cells [6]; 5 μg/ml): -; log reduction at 1 µg/mL ([7]; PR/8, MDCK): 0.4; log reduction at 5 µg/mL ([7]; PR/8, MDCK): 0.6; log reduction at 20 µg/mL ([7]; PR/8, MDCK): 1.5 |
| Nc1ncnc2c1ncn2[C@@H]1O[C@H](CO)[C@@H](O)[C@@H]1O [Ara-a, reference compound] | - |  | 1.5 | 2.5 | 1.2 | 1.1 | 1.7 | 2.6 | magnitude of cytotoxicity (GMK cells [6]; 1 μg/ml): - |
| NC(=O)c1ncn([C@@H]2O[C@H](CO)[C@@H](O)[C@H]2O)n1 [Ribavirin, reference compound] |  |  |  |  |  |  |  |  | log reduction at 1 µg/mL ([7]; PR/8, 1 μg/ml, MDCK cells): 0.8; log reduction at 5 µg/mL ([7]; PR/8, 5 μg/ml, MDCK cells): 1.8; log reduction at 20 µg/mL ([7]; PR/8, 20 μg/ml, MDCK cells): 3.2; magnitude of cytotoxicity (MDCK cells; 1 μg/ml): -; magnitude of cytotoxicity (MDCK cells; 5 μg/ml): -; magnitude of cytotoxicity (MDCK cells; 20 μg/ml): - |
| CC1(C)[C@@H](OCC(=O)O)CC[C@]2(C)[C@H]3CC=C4[C@@H]5C[C@@](C)(C(=O)O)CC[C@]5(C)CC[C@@]4(C)[C@]3(C)CC[C@@H]12 [Table 1, Comp. (15), disodium-3β-carboxymethoxy-18β-olean-12-en-30-oate] | - | - | 0.3 | 1 | 0 |  |  |  |  |
| CC1(C)[C@@H](OCCC(=O)O)CC[C@]2(C)[C@H]3CC=C4[C@@H]5C[C@@](C)(C(=O)O)CC[C@]5(C)CC[C@@]4(C)[C@]3(C)CC[C@@H]12 [Table 1, Comp. (18), disodium-3β-(2-carboxyethoxy)-18β-olean-12-en-30-oate] | - | - | 1.6 | 1.2 | 0.7 |  |  |  |  |
| O=c1[nH]cnc2c1ncn2[C@H]1CC[C@@H](CO)O1 [DDI] |  |  |  |  |  |  |  |  | effect on AIDS (AIDS virus (HIV)): delay the development of AIDS, but cannot accelerate healing |
| CC(N)C12CC3CC(CC(C3)C1)C2 (racemic) [remantadine] |  |  |  |  |  |  |  |  | efficacy against influenza B virus (influenza B virus): not against influenza B virus; efficacy against influenza A virus (influenza A virus): efficacious against influenza A virus |
| NC12CC3CC(CC(C3)C1)C2 [Amantadine] |  |  |  |  |  |  |  |  | efficacy against influenza B virus (influenza B virus): not against influenza B virus; efficacy against influenza A virus (influenza A virus): efficacious against influenza A virus |
| COc1ccccc1N1CCN(C(=O)[C@@]2(C)CC[C@]3(C)CC[C@]4(C)C(=CC[C@@H]5[C@@]6(C)CC[C@H](OC(=O)/C=C\C(=O)O)C(C)(C)[C@@H]6CC[C@]54C)[C@@H]3C2)CC1 [Table 1, Comp. (5), 1-[3β-(3-carboxy-cis-propenoyloxy)-18β-olean-12-en-30-oyl]-4-(2-methoxyphenyl)piperazine] | - | - | 2.1 | 3.1 | 1 | 1.3 | 2.2 | 2.8 | Mean Survival Days (average ± standard error) (HSV-1 (Miyama strain) [9]; 5 mg/Kg): 7.9 ± 1.1 days; Mean Survival Days (average ± standard error) (HSV-1 (Miyama strain) [9]; 10 mg/Kg, p < 0.05 (t-Test)): 8.6 ± 0.7 days; Mean Survival Days (average ± standard error) (HSV-1 (Miyama strain) [9]; 20 mg/Kg, p < 0.001 (t-Test)): 11.2 ± 1.1 days; magnitude of cytotoxicity (GMK cells [1]; 25 μg/ml): -; magnitude of cytotoxicity (GMK cells [6]; 1 μg/ml): -; magnitude of cytotoxicity (GMK cells [6]; 5 μg/ml): -; magnitude of cytotoxicity (GMK cells [6]; 25 μg/ml): -; log reduction at 1 µg/mL ([7]; PR/8, MDCK): 0.8; log reduction at 5 µg/mL ([7]; PR/8, MDCK): 1.2; log reduction at 20 µg/mL ([7]; PR/8, MDCK): 2.1; magnitude of cytotoxicity (MDCK cells): - |
| CC(C)=CCCC(C)=CCCC(C)=CCN1CCN(C(=O)[C@@]2(C)CC[C@]3(C)CC[C@]4(C)C(=CC[C@@H]5[C@@]6(C)CC[C@H](OC(=O)/C=C\C(=O)O)C(C)(C)[C@@H]6CC[C@]54C)[C@@H]3C2)CC1 [Table 1, Comp. (10)] | - |  | 2 | 1.9 | 0.7 |  |  |  |  |

Source: patent US5356880A, “Glycyrrhetinic acid derivatives” (priority 1991, dated 1994)
